From ChEMBL document CHEMBL4000244, “Probing A-form DNA: A fluorescent aminosugar probe and dual recognition by anthraquinone-neomycin conjugates” (Bioorg Med Chem, 2017)

How the values were obtained:
[1] = Binding affinity to 5'-CGGGGCCC-3' DNA hairpin assessed as change in fluorescence intensity at 1 uM after 45 mins by fluorescence quenching analysis relative to control
[2] = Binding affinity to 5'-CCGGCGGG-3' DNA hairpin assessed as change in fluorescence intensity at 1 uM after 45 mins by fluorescence quenching analysis relative to control
[3] = Binding affinity to 5'-GGCCGGCC-3' DNA hairpin assessed as change in fluorescence intensity at 1 uM after 45 mins by fluorescence quenching analysis relative to control
[4] = Binding affinity to 5'-CCGCGCCG-3' DNA hairpin assessed as change in fluorescence intensity at 1 uM after 45 mins by fluorescence quenching analysis relative to control
[5] = Binding affinity to 5'-GGGCCGCG-3' DNA hairpin assessed as change in fluorescence intensity at 1 uM after 45 mins by fluorescence quenching analysis relative to control
[6] = Binding affinity to 5'-CCCGCCGC-3' DNA hairpin assessed as change in fluorescence intensity at 1 uM after 45 mins by fluorescence quenching analysis relative to control
[7] = Binding affinity to 5'-CCCCCGCC-3' DNA hairpin assessed as change in fluorescence intensity at 1 uM after 45 mins by fluorescence quenching analysis relative to control
[8] = Binding affinity to 5'-GCGCCCGG-3' DNA hairpin assessed as change in fluorescence intensity at 1 uM after 45 mins by fluorescence quenching analysis relative to control
[9] = Binding affinity to 5'-CGCGCGCG-3' DNA hairpin assessed as change in fluorescence intensity at 1 uM after 45 mins by fluorescence quenching analysis relative to control
[10] = Binding affinity to 5'-CGGGCCCG-3' DNA hairpin assessed as change in fluorescence intensity at 1 uM after 45 mins by fluorescence quenching analysis relative to control
[11] = Binding affinity to 5'-GGGGGGCC-3' DNA hairpin assessed as change in fluorescence intensity at 1 uM after 45 mins by fluorescence quenching analysis relative to control
[12] = Binding affinity to 5'-CGCCGCCC-3' DNA hairpin assessed as change in fluorescence intensity at 1 uM after 45 mins by fluorescence quenching analysis relative to control
[13] = Binding affinity to 5'-CCCGGGGG-3' DNA hairpin assessed as change in fluorescence intensity at 1 uM after 45 mins by fluorescence quenching analysis relative to control
[14] = Binding affinity to 5'-CGGCCCCC-3' DNA hairpin assessed as change in fluorescence intensity at 1 uM after 45 mins by fluorescence quenching analysis relative to control
[15] = Binding affinity to 5'-CGGCGCCC-3' DNA hairpin assessed as change in fluorescence intensity at 1 uM after 45 mins by fluorescence quenching analysis relative to control
[16] = Binding affinity to 5'-CCGGGGCC-3' DNA hairpin assessed as change in fluorescence intensity at 1 uM after 45 mins by fluorescence quenching analysis relative to control
[17] = Binding affinity to 5'-GCCGCCCC-3' DNA hairpin assessed as change in fluorescence intensity at 1 uM after 45 mins by fluorescence quenching analysis relative to control
[18] = Binding affinity to 5'-GCGCGGCC-3' DNA hairpin assessed as change in fluorescence intensity at 1 uM after 45 mins by fluorescence quenching analysis relative to control
[19] = Binding affinity to 5'-CCGCGGGG-3' DNA hairpin assessed as change in fluorescence intensity at 1 uM after 45 mins by fluorescence quenching analysis relative to control
[20] = Binding affinity to 5'-CGGCCCGC-3' DNA hairpin assessed as change in fluorescence intensity at 1 uM after 45 mins by fluorescence quenching analysis relative to control
[21] = Binding affinity to 5'-CCGCGGCC-3' DNA hairpin assessed as change in fluorescence intensity at 1 uM after 45 mins by fluorescence quenching analysis relative to control
[22] = Binding affinity to 5'-CCGGCGCG-3' DNA hairpin assessed as change in fluorescence intensity at 1 uM after 45 mins by fluorescence quenching analysis relative to control
[23] = Binding affinity to 5'-CGGCGGGC-3' DNA hairpin assessed as change in fluorescence intensity at 1 uM after 45 mins by fluorescence quenching analysis relative to control
[24] = Binding affinity to 5'-CGCGCCGG-3' DNA hairpin assessed as change in fluorescence intensity at 1 uM after 45 mins by fluorescence quenching analysis relative to control
[25] = Binding affinity to 5'-GGCGGGCG-3' DNA hairpin assessed as change in fluorescence intensity at 1 uM after 45 mins by fluorescence quenching analysis relative to control
[26] = Binding affinity to 5'-CCCGGCCG-3' DNA hairpin assessed as change in fluorescence intensity at 1 uM after 45 mins by fluorescence quenching analysis relative to control
[27] = Binding affinity to 5'-CGCCGGCG-3' DNA hairpin assessed as change in fluorescence intensity at 1 uM after 45 mins by fluorescence quenching analysis relative to control
[28] = Binding affinity to 5'-CGGGCCGG-3' DNA hairpin assessed as change in fluorescence intensity at 1 uM after 45 mins by fluorescence quenching analysis relative to control
[29] = Binding affinity to 5'-CCCGGGCG-3' DNA hairpin assessed as change in fluorescence intensity at 1 uM after 45 mins by fluorescence quenching analysis relative to control
[30] = Binding affinity to 5'-GCCGGGCG-3' DNA hairpin assessed as change in fluorescence intensity at 1 uM after 45 mins by fluorescence quenching analysis relative to control
[31] = Binding affinity to 5'-GCCCCCGG-3' DNA hairpin assessed as change in fluorescence intensity at 1 uM after 45 mins by fluorescence quenching analysis relative to control
[32] = Binding affinity to 5'-CCCGCCCG-3' DNA hairpin assessed as change in fluorescence intensity at 1 uM after 45 mins by fluorescence quenching analysis relative to control
[33] = Binding affinity to 5'-CGGCCGCC-3' DNA hairpin assessed as change in fluorescence intensity at 1 uM after 45 mins by fluorescence quenching analysis relative to control
[34] = Binding affinity to 5'-GGGGCCCG-3' DNA hairpin assessed as change in fluorescence intensity at 1 uM after 45 mins by fluorescence quenching analysis relative to control
[35] = Binding affinity to 5'-GGCGCCCG-3' DNA hairpin assessed as change in fluorescence intensity at 1 uM after 45 mins by fluorescence quenching analysis relative to control
[36] = Binding affinity to 5'-GGGCCGCC-3' DNA hairpin assessed as change in fluorescence intensity at 1 uM after 45 mins by fluorescence quenching analysis relative to control

## NCC1O[C@H](O[C@H]2[C@@H](O)[C@H](O[C@@H]3[C@@H](O)[C@H](N)C[C@H](N)[C@H]3O[C@H]3O[C@H](CN)[C@@H](O)[C@H](O)[C@H]3N)O[C@@H]2CSCCNC(=O)CCSCC(=O)Nc2ccc(-c3c4ccc(=O)cc-4oc4cc(O)ccc34)c(C(=O)O)c2)[C@H](N)[C@@H](O)[C@@H]1O (stereo partly specified)
[1]
  Activity: 40.4%
[2]
  Activity: 49.1%
[3]
  Activity: 45%
[4]
  Activity: 53.7%
[5]
  Activity: 39.6%
[6]
  Activity: 48.9%
[7]
  Activity: 39.1%
[8]
  Activity: 49.3%
[9]
  Activity: 43.6%
[10]
  Activity: 41.3%
[11]
  Activity: 32.2%
[12]
  Activity: 44.6%
[13]
  Activity: 38.7%
[14]
  Activity: 29.6%
[15]
  Activity: 45.2%
[16]
  Activity: 37.6%
[17]
  Activity: 48.5%
[18]
  Activity: 50.4%
[19]
  Activity: 48.6%
[20]
  Activity: 39.9%
[21]
  Activity: 50.6%
[22]
  Activity: 45.4%
[23]
  Activity: 43.1%
[24]
  Activity: 43.8%
[25]
  Activity: 48.3%
[26]
  Activity: 44.5%
[27]
  Activity: 50.8%
[28]
  Activity: 48.2%
[29]
  Activity: 39%
[30]
  Activity: 49.7%
[31]
  Activity: 16%
[32]
  Activity: 46.5%
[33]
  Activity: 47.7%
[34]
  Activity: 29.7%
[35]
  Activity: 43.7%
[36]
  Activity: 40%
